Test system: Anguilla japonica leptocephali
Assay: Induction of Anguilla japonica metamorphosis by T4 treatment in 23° C. breeding water
Format: in vivo
Design: key: L: During life, no characteristics of metamorphosis seen.; Stage 1: Starting phase of metamorphosis. The rostral end is rounded, and intestinal degeneration starts.; Stage 2: Peak phase of metamorphosis. Intestinal degeneration becomes pronounced.; Stage 3: Late phase of metamorphosis.; Stage 4: Pre-glass eel stage. Almost the eel form, but the body height still remains
Description: Stage 1: Starting phase of metamorphosis. The rostral end is rounded, and intestinal degeneration starts.
Stage 2: Peak phase of metamorphosis. Intestinal degeneration becomes pronounced. In the second half, the anus reaches to near the last vertical blood vessel (VBV last).
Stage 3: Late phase of metamorphosis. The preanal length (PAL) becomes equal to or shorter than the last vertical blood vessel length (VBV last Length) (PAL VBV last Length). The body height is apparently low.
Stage 4: Pre-glass eel stage. Almost the eel form, but the body height still remains. Melanophores on the body surface or endogenous melanophores are not yet seen.
Elver stage: Juvenile stage. Food intake can be identified.
A thyroid hormone (e.g., thyroxine (T4)) is adjusted to 50 to 100 mM in a 1- to 2-mL volume messflask. As a solvent, known solvents (water, alcohol) can be used. Ethanol is preferably used as the solvent.
For example, using ethanol as a solvent, T4 adjusted to 50 mM is diluted 500-fold, 5,000-fold, and 50,000-fold, respectively, and adjusted to […], 1 μM, and 100 nM. A feed can be prepared in this manner.
Artificial seawater is added to a breeding vessel, and 1/1000 of the […] T4 is added to prepare […] T4 breeding water.
Half of the breeding water is replaced every two days with breeding water of the same concentration. In the case where the concentration is changed, for example, in the case of changing from 10 nM to 2 nM, 80% to the breeding water is removed, and unadjusted artificial seawater is newly added to make 1 L.
Leptocephali visually considered to have reached a total length of 40 mm (or may be 30 mm to 50 mm, may be 35 mm to 45 mm, or may also be 35 mm or more, 40 mm or more, or 45 mm or more) are selected, anesthetized with 2-phenoxyethanol, and then photographed, and the total length of each larva is measured using an image analyzing device.
The larvae are placed in 10 nM T4 breeding water and then placed in an incubator set at 23° C., and breeding is started. In first one week, observation is performed every two days, and half of the 10 nM T4 breeding water is replaced each time. The average amount of thyroid hormone in the breeding water in stage 1 is 1 nM to 100 nM, for example, and may also be 3 nM to 30 nM, or 5 nM to 20 nM.
For larvae visually judged to have reached the second half of stage 2, the concentration of the breeding water is changed. The breeding water is diluted 5-fold or 10-fold and adjusted to 2 nM or 1 nM T4, and breeding is continued. The average amount of thyroid hormone in the breeding water in stage 2 may be, as compared with the breeding water of stage 1, diluted 2-fold to 20-fold, diluted 3 to 15-fold, or diluted 5 to 10-fold as described above. The average amount of thyroid hormone in the breeding water in stage 2 is 0.1 nM to 20 nM, for example, and may also be 0.5 nM to 10 nM, 1 nM to 5 nM, or 1 nM to 2 nM.
For larvae visually judged to have reached stage 3, the breeding water is quickly changed 0.2 nM T4 breeding water, which is a 5-fold dilution of 1 nM T4 breeding water, and further changed to 0.1 nM T4 breeding water on the following day. […] Also, in larvae whose anus position has not reached the last vertical hemal spine, when they are judged to be on the brink of stage 3, the concentration is changed as above. The average amount of thyroid hormone in the breeding water in stage 3 may be, as compared with the breeding water of stage 2, diluted 2-fold to 50-fold, diluted 3 to 15-fold, diluted 4 to 6-fold, or diluted 5-fold as described above. The average amount of thyroid hormone in the breeding water in stage 3 is 0.01 nM to 2 nM, for example, and may also be 0.05 nM to 1 nM, 0.1 nM to 0.5 nM, or 0.1 nM to 0.2 nM. […] That is, the concentration may be changed such that the thyroid hormone becomes undetectable in the breeding water in the course of stage 3.
In stage 3, breeding is continuously performed in the 0.1 nM T4 breeding water. […]

Work on N[C@@H](Cc1cc(I)c(Oc2cc(I)c(O)c(I)c2)c(I)c1)C(=O)O [T4, thyroxine] yielded a metamorphosis stage (individual Exp 5-5, 174 days old, total length 36.1 mm at start, c3 onward = treatment days 1,3,5,7,8,9,10,11,12,13,14,15,16,17, T4 (nM) 10,10,10,10,10,10,10,2,0.2,0.1,0.1,0.1,0.1,0.1, treatment day 16, T4 0.1 nM) of 3, a metamorphosis stage (individual Exp 5-5, 174 days old, total length 36.1 mm at start, c3 onward = treatment days 1,3,5,7,8,9,10,11,12,13,14,15,16,17, T4 (nM) 10,10,10,10,10,10,10,2,0.2,0.1,0.1,0.1,0.1,0.1, treatment day 17, T4 0.1 nM) of 4 and a metamorphosis stage (individual Exp 6-2, 129 days old, total length 38.1 mm at start, c3 onward = treatment days 1,3,5,7,9,10,11,12,13,14,15,16,17,18, T4 (nM) 10,10,10,10,10,2,0.2,0.1,0.1,0.1,0.1,0.1,0.1,0.1) of 3. For the same compound, the metamorphosis stage (individual Exp. 5-1, 175 days old, total length 38.5 mm at start, c3 onward = treatment days 1,3,5,7,8,9,10,11,12,13,14,15,16,17,18, T4 (nM) 10,10,10,10,2,1,0.2,0.1,0.1,0.1,0.1,0.1, treatment day 1, T4 10 nM) was “L”, the metamorphosis stage (individual Exp. 5-1, 175 days old, total length 38.5 mm at start, c3 onward = treatment days 1,3,5,7,8,9,10,11,12,13,14,15,16,17,18, T4 (nM) 10,10,10,10,2,1,0.2,0.1,0.1,0.1,0.1,0.1, treatment day 3, T4 10 nM) was “L” and the metamorphosis stage (individual Exp. 5-1, 175 days old, total length 38.5 mm at start, c3 onward = treatment days 1,3,5,7,8,9,10,11,12,13,14,15,16,17,18, T4 (nM) 10,10,10,10,2,1,0.2,0.1,0.1,0.1,0.1,0.1, treatment day 5, T4 10 nM) was 1. It also gave a metamorphosis stage (individual Exp. 5-1, 175 days old, total length 38.5 mm at start, c3 onward = treatment days 1,3,5,7,8,9,10,11,12,13,14,15,16,17,18, T4 (nM) 10,10,10,10,2,1,0.2,0.1,0.1,0.1,0.1,0.1, treatment day 7, T4 10 nM) of 2, a metamorphosis stage (individual Exp. 5-1, 175 days old, total length 38.5 mm at start, c3 onward = treatment days 1,3,5,7,8,9,10,11,12,13,14,15,16,17,18, T4 (nM) 10,10,10,10,2,1,0.2,0.1,0.1,0.1,0.1,0.1, treatment day 8, T4 2 nM) of 2 and a metamorphosis stage (individual Exp. 5-1, 175 days old, total length 38.5 mm at start, c3 onward = treatment days 1,3,5,7,8,9,10,11,12,13,14,15,16,17,18, T4 (nM) 10,10,10,10,2,1,0.2,0.1,0.1,0.1,0.1,0.1, treatment day 9, T4 1 nM) of 2. The metamorphosis stage (individual Exp. 5-1, 175 days old, total length 38.5 mm at start, c3 onward = treatment days 1,3,5,7,8,9,10,11,12,13,14,15,16,17,18, T4 (nM) 10,10,10,10,2,1,0.2,0.1,0.1,0.1,0.1,0.1, treatment day 10, T4 0.2 nM) was 3, the metamorphosis stage (individual Exp. 5-1, 175 days old, total length 38.5 mm at start, c3 onward = treatment days 1,3,5,7,8,9,10,11,12,13,14,15,16,17,18, T4 (nM) 10,10,10,10,2,1,0.2,0.1,0.1,0.1,0.1,0.1, treatment day 11, T4 0.1 nM) was 3 and the metamorphosis stage (individual Exp. 5-1, 175 days old, total length 38.5 mm at start, c3 onward = treatment days 1,3,5,7,8,9,10,11,12,13,14,15,16,17,18, T4 (nM) 10,10,10,10,2,1,0.2,0.1,0.1,0.1,0.1,0.1, treatment day 12, T4 0.1 nM) was 3. It also gave a metamorphosis stage (individual Exp. 5-1, 175 days old, total length 38.5 mm at start, c3 onward = treatment days 1,3,5,7,8,9,10,11,12,13,14,15,16,17,18, T4 (nM) 10,10,10,10,2,1,0.2,0.1,0.1,0.1,0.1,0.1, treatment day 13, T4 0.1 nM) of 3, a metamorphosis stage (individual Exp. 5-1, 175 days old, total length 38.5 mm at start, c3 onward = treatment days 1,3,5,7,8,9,10,11,12,13,14,15,16,17,18, T4 (nM) 10,10,10,10,2,1,0.2,0.1,0.1,0.1,0.1,0.1, treatment day 14, T4 0.1 nM) of 3 and a metamorphosis stage (individual Exp. 5-1, 175 days old, total length 38.5 mm at start, c3 onward = treatment days 1,3,5,7,8,9,10,11,12,13,14,15,16,17,18, T4 (nM) 10,10,10,10,2,1,0.2,0.1,0.1,0.1,0.1,0.1, treatment day 15, T4 0.1 nM) of 4. For the same compound, the metamorphosis stage (individual Exp. 5-2, 175 days old, total length 41.3 mm at start, c3 onward = treatment days 1,3,5,7,8,9,10,11,12,13,14,15,16,17,18, T4 (nM) 10,10,10,10,2,1,0.2,0.1,0.1,0.1,0.1,0.1, treatment day 1, T4 10 nM) was “L”, the metamorphosis stage (individual Exp. 5-2, 175 days old, total length 41.3 mm at start, c3 onward = treatment days 1,3,5,7,8,9,10,11,12,13,14,15,16,17,18, T4 (nM) 10,10,10,10,2,1,0.2,0.1,0.1,0.1,0.1,0.1, treatment day 3, T4 10 nM) was “L” and the metamorphosis stage (individual Exp. 5-2, 175 days old, total length 41.3 mm at start, c3 onward = treatment days 1,3,5,7,8,9,10,11,12,13,14,15,16,17,18, T4 (nM) 10,10,10,10,2,1,0.2,0.1,0.1,0.1,0.1,0.1, treatment day 5, T4 10 nM) was 2. For the same compound, the metamorphosis stage (individual Exp. 5-2, 175 days old, total length 41.3 mm at start, c3 onward = treatment days 1,3,5,7,8,9,10,11,12,13,14,15,16,17,18, T4 (nM) 10,10,10,10,2,1,0.2,0.1,0.1,0.1,0.1,0.1, treatment day 7, T4 10 nM) was 2, the metamorphosis stage (individual Exp. 5-2, 175 days old, total length 41.3 mm at start, c3 onward = treatment days 1,3,5,7,8,9,10,11,12,13,14,15,16,17,18, T4 (nM) 10,10,10,10,2,1,0.2,0.1,0.1,0.1,0.1,0.1, treatment day 8, T4 2 nM) was 2 and the metamorphosis stage (individual Exp. 5-2, 175 days old, total length 41.3 mm at start, c3 onward = treatment days 1,3,5,7,8,9,10,11,12,13,14,15,16,17,18, T4 (nM) 10,10,10,10,2,1,0.2,0.1,0.1,0.1,0.1,0.1, treatment day 9, T4 1 nM) was 2. It also gave a metamorphosis stage (individual Exp. 5-2, 175 days old, total length 41.3 mm at start, c3 onward = treatment days 1,3,5,7,8,9,10,11,12,13,14,15,16,17,18, T4 (nM) 10,10,10,10,2,1,0.2,0.1,0.1,0.1,0.1,0.1, treatment day 10, T4 0.2 nM) of 3, a metamorphosis stage (individual Exp. 5-2, 175 days old, total length 41.3 mm at start, c3 onward = treatment days 1,3,5,7,8,9,10,11,12,13,14,15,16,17,18, T4 (nM) 10,10,10,10,2,1,0.2,0.1,0.1,0.1,0.1,0.1, treatment day 11, T4 0.1 nM) of 3 and a metamorphosis stage (individual Exp. 5-2, 175 days old, total length 41.3 mm at start, c3 onward = treatment days 1,3,5,7,8,9,10,11,12,13,14,15,16,17,18, T4 (nM) 10,10,10,10,2,1,0.2,0.1,0.1,0.1,0.1,0.1, treatment day 12, T4 0.1 nM) of 3. For the same compound, the metamorphosis stage (individual Exp. 5-2, 175 days old, total length 41.3 mm at start, c3 onward = treatment days 1,3,5,7,8,9,10,11,12,13,14,15,16,17,18, T4 (nM) 10,10,10,10,2,1,0.2,0.1,0.1,0.1,0.1,0.1, treatment day 13, T4 0.1 nM) was 3.
